Among the data in patent US11472803B2, “7-substituted 1-aryl-naphthyridine-3-carboxylic acid amides and use thereof” (Bayer Aktiengesellschaft, priority 2016, dated 2022) are EC50 and Emax values, retold here.

Counter-ions that a name gives are not always drawn.

For this assay, the target named is T1, human M2 receptor (Homo sapiens, UniProt P08172).
T1 construct: expressed in transfected cells; host or cells: CHO-DUKX (CHO-DUKX-M2-GIRK)
T1 sequence (P08172 1-466): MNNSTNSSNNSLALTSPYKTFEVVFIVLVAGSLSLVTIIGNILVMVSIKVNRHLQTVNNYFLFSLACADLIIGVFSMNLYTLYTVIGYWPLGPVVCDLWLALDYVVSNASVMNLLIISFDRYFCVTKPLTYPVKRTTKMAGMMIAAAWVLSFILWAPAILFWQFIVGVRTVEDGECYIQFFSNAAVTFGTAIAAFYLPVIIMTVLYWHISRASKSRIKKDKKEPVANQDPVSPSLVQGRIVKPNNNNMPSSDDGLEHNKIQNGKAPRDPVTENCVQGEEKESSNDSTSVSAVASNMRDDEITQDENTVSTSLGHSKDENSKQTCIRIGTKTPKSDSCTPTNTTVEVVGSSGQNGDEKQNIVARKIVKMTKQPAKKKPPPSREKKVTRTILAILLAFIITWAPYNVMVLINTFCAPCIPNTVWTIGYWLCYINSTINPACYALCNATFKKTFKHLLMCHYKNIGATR
Briefly: Functional M2-GIRK1/4 activation test: allosteric potency (EC50) and efficiency at EC20 acetylcholine. Type of assay: cell-based. The settings on record: CHO-DUKX-M2-GIRK cells; for EC50: voltage-sensitive dye, acetylcholine at EC20, in some cases mean of two or more determinations; for Emax: boosting of the acetylcholine effect at EC20 acetylcholine concentration. The method, boiled down:
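CHO-DUKX cells stably expressing human M2 and GIRK1/4; membrane potential tracked with voltage-sensitive dye at room temperature. Compound added 50 s before acetylcholine at its EC20, then hyperpolarization read 60 s. EC50 (allosteric potency) and efficiency (boost of EC20 ACh effect) from 4-parameter Hill fit.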

In the case of `CN(C)c1nc2c(cc1F)c(=O)c(C(=O)NC(C)(C)CC(F)(F)F)cn2-c1c(F)cc(F)cc1F` [Example 63, 7-(Dimethylamino)-6-fluoro-4-oxo-N-(4,4,4-trifluoro-2-methylbutan-2-yl)-1-(2,4,6-trifluoro-phenyl)-1,4-dihydro-1,8-naphthyridine-3-carboxamide], the EC50 (usually the concentration at which the effect is half-maximal) stood at 3.9 nM and the Emax – broadly, the size of the effect at its maximum, as opposed to the concentration needed – came to 92%.
In the same order, the values of `C[C@H](O)CN(C)c1nc2c(cc1F)c(=O)c(C(=O)N[C@@H](C1CC1)C(F)(F)F)cn2-c1c(F)cc(F)cc1F` [Example 64, N-[(1S)-1-Cyclopropyl-2,2,2-trifluoroethyl]-6-fluoro-7-{[(2S)-2-hydroxypropyl](methyl)amino}-4-oxo-1-(2,4,6-trifluorophenyl)-1,4-dihydro-1,8-naphthyridine-3-carboxamide] are 12 nM and 96%.
For the compound `O=C(N[C@@H](C1CC1)C(F)(F)F)c1cn(-c2c(F)cc(F)cc2Cl)c2nc(N3CC4(COC4)C3)c(F)cc2c1=O` [Example 68, 1-(2-Chloro-4,6-difluorophenyl)-N-[(1S)-1-cyclopropyl-2,2,2-trifluoroethyl]-6-fluoro-7-(2-oxa-6-azaspiro[3.3]hept-6-yl)-4-oxo-1,4-dihydro-1,8-naphthyridine-3-carboxamide trifluoroacetate], the EC50 is 32 nM and the Emax came to 92%.
The corresponding values for `O=C(N[C@@H](C1CC1)C(F)(F)F)c1cn(-c2c(F)cc(F)cc2Cl)c2nc(N3CC(CO)(CO)C3)c(F)cc2c1=O` [Example 69, 7-[3,3-Bis(hydroxymethyl)azetidin-1-yl]-1-(2-chloro-4,6-difluorophenyl)-N-[(1S)-1-cyclopropyl-2,2,2-trifluoroethyl]-6-fluoro-4-oxo-1,4-dihydro-1,8-naphthyridine-3-carboxamide] are 5.9 nM and 100%.
The corresponding values for `C[C@H](O)CN(C)c1nc2c(cc1F)c(=O)c(C(=O)N[C@@H](C1CC1)C(F)(F)F)cn2-c1c(F)cc(F)cc1Cl` [Example 72, 1-(2-Chloro-4,6-difluorophenyl)-N-[(1S)-1-cyclopropyl-2,2,2-trifluoroethyl]-6-fluoro-7-{[(2S)-2-hydroxypropyl](methyl)amino}-4-oxo-1,4-dihydro-1,8-naphthyridine-3-carboxamide] are 11 nM and 89%.
The corresponding values for `CCC(C)(C)NC(=O)c1cn(-c2c(F)cc(F)cc2Cl)c2nc(N3C[C@@H](O)[C@H](O)C3)c(F)cc2c1=O` [Example 73, 1-(2-Chloro-4,6-difluorophenyl)-7-[(3R,4R)-3,4-dihydroxypyrrolidin-1-yl]-6-fluoro-N-(2-methylbutan-2-yl)-4-oxo-1,4-dihydro-1,8-naphthyridine-3-carboxamide] are 2.7 nM and 94%.
`CC(C)(C)NC(=O)c1cn(-c2c(F)cc(F)cc2Cl)c2nc(N3C[C@@H](O)[C@H](O)C3)c(F)cc2c1=O` [Example 74, N-tert-Butyl-1-(2-chloro-4,6-difluorophenyl)-7-[(3R,4R)-3,4-dihydroxypyrrolidin-1-yl]-6-fluoro-4-oxo-1,4-dihydro-1,8-naphthyridine-3-carboxamide]: the concentration for a half-maximal effect (EC50) worked out at 3.9 nM and the Emax was 95%.
The corresponding values for `CCC(C)(C)NC(=O)c1cn(-c2ncc(F)cc2F)c2nc(N3C[C@@H](O)[C@H](O)C3)c(F)cc2c1=O` [Example 75, 1-(3,5-Difluoropyridin-2-yl)-7-[(3R,4R)-3,4-dihydroxypyrrolidin-1-yl]-6-fluoro-N-(2-methyl-butan-2-yl)-4-oxo-1,4-dihydro-1,8-naphthyridine-3-carboxamide] are 87 nM and 100%.
In the same order, the values of `CCC(C)(CC)NC(=O)c1cn(-c2ncc(F)cc2F)c2nc(N3C[C@@H](O)[C@H](O)C3)c(F)cc2c1=O` [Example 76, 1-(3,5-Difluoropyridin-2-yl)-7-[(3R,4R)-3,4-dihydroxypyrrolidin-1-yl]-6-fluoro-N-(3-methylpentan-3-yl)-4-oxo-1,4-dihydro-1,8-naphthyridine-3-carboxamide] are 29 nM and 100%.
The corresponding values for `CCC(CC)(CC)NC(=O)c1cn(-c2c(F)cc(F)cc2F)c2nc(N3C[C@@H](O)[C@@H](O)C3)c(F)cc2c1=O` [Example 77, 7-[(3R,4S)-3,4-Dihydroxypyrrolidin-1-yl]-N-(3-ethylpentan-3-yl)-6-fluoro-4-oxo-1-(2,4,6-tri-fluorophenyl)-1,4-dihydro-1,8-naphthyridine-3-carboxamide] are 1.6 nM and 100%.
Take `CCC(C)(CC)NC(=O)c1cn(-c2c(F)cc(F)cc2F)c2nc(N3C[C@@H](O)[C@@H](O)C3)c(F)cc2c1=O` [Example 78, 7-[(3R,4S)-3,4-Dihydroxypyrrolidin-1-yl]-6-fluoro-N-(3-methylpentan-3-yl)-4-oxo-1-(2,4,6-trifluorophenyl)-1,4-dihydro-1,8-naphthyridine-3-carboxamide]: the EC50 was determined as 2.8 nM and the Emax is 100%.
In the same order, the values of `CCC(C)(C)NC(=O)c1cn(-c2c(F)cc(F)cc2F)c2nc(N3C[C@@H](O)[C@@H](O)C3)c(F)cc2c1=O` [Example 79, 7-[(3R,4S)-3,4-Dihydroxypyrrolidin-1-yl]-6-fluoro-N-(2-methylbutan-2-yl)-4-oxo-1-(2,4,6-tri-fluorophenyl)-1,4-dihydro-1,8-naphthyridine-3-carboxamide] are 9.3 nM and 99%.
The corresponding values for `CC(C)(C)NC(=O)c1cn(-c2c(F)cc(F)cc2F)c2nc(N3C[C@@H](O)[C@@H](O)C3)c(F)cc2c1=O` [Example 80, N-tert-Butyl-7-[(3R,4S)-3,4-dihydroxypyrrolidin-1-yl]-6-fluoro-4-oxo-1-(2,4,6-trifluoro-phenyl)-1,4-dihydro-1,8-naphthyridine-3-carboxamide] are 24 nM and 100%.
In the same order, the values of `O=C(N[C@@H](C1CC1)C(F)(F)F)c1cn(-c2c(F)cc(F)cc2F)c2nc(N3CCNCC3)c(F)cc2c1=O` [Example 81, N-[(1S)-1-Cyclopropyl-2,2,2-trifluoroethyl]-6-fluoro-4-oxo-7-(piperazin-1-yl)-1-(2,4,6-trifluorophenyl)-1,4-dihydro-1,8-naphthyridine-3-carboxamide] are 150 nM and 87%.
For `C[C@H]1CN(c2nc3c(cc2F)c(=O)c(C(=O)N[C@@H](C2CC2)C(F)(F)F)cn3-c2c(F)cc(F)cc2F)CCN1` [Example 82, N-[(1S)-1-Cyclopropyl-2,2,2-trifluoroethyl]-6-fluoro-7-[(3S)-3-methylpiperazin-1-yl]-4-oxo-1-(2,4,6-trifluorophenyl)-1,4-dihydro-1,8-naphthyridine-3-carboxamide], the EC50 was 140 nM and the Emax worked out at 65%.
Regarding `O=C(N[C@@H](C1CC1)C(F)(F)F)c1cn(-c2c(F)cc(F)cc2F)c2nc(N3CC4(COC4)C3)c(F)cc2c1=O` [Example 83, N-[(1S)-1-Cyclopropyl-2,2,2-trifluoroethyl]-6-fluoro-7-(2-oxa-6-azaspiro[3.3]hept-6-yl)-4-oxo-1-(2,4,6-trifluorophenyl)-1,4-dihydro-1,8-naphthyridine-3-carboxamide], the concentration for a half-maximal effect (EC50) worked out at 44 nM and the Emax was 94%.
Regarding `CC(C)(C)OC(=O)N1CCC(NC(=O)c2cn(-c3c(F)cc(F)cc3F)c3nc(N4C[C@@H](O)[C@H](O)C4)c(F)cc3c2=O)C(F)(F)C1` (stereo partly drawn) [Example 85, tert-Butyl 4-[({7-[(3R,4R)-3,4-dihydroxypyrrolidin-1-yl]-6-fluoro-4-oxo-1-(2,4,6-trifluoro-phenyl)-1,4-dihydro-1,8-naphthyridin-3-yl}carbonyl)amino]-3,3-difluoropiperidine-1-carboxylate], the EC50 was 33 nM and the Emax worked out at 100%.
The corresponding values for `COC(=O)C12CCC(NC(=O)c3cn(-c4c(F)cc(F)cc4F)c4nc(N5C[C@@H](O)[C@H](O)C5)c(F)cc4c3=O)(CC1)C2` [Example 86, Methyl 4-[({7-[(3R,4R)-3,4-dihydroxypyrrolidin-1-yl]-6-fluoro-4-oxo-1-(2,4,6-trifluoro-phenyl)-1,4-dihydro-1,8-naphthyridin-3-yl}carbonyl)amino]bicyclo[2.2.1]heptane-1-carboxylate] are 14 nM and 95%.
The corresponding values for `CCC(CC)(CC)NC(=O)c1cn(-c2c(F)cc(F)cc2F)c2nc(N3C[C@@H](O)[C@H](O)C3)c(F)cc2c1=O` [Example 87, 7-[(3R,4R)-3,4-Dihydroxypyrrolidin-1-yl]-N-(3-ethylpentan-3-yl)-6-fluoro-4-oxo-1-(2,4,6-tri-fluorophenyl)-1,4-dihydro-1,8-naphthyridine-3-carboxamide] are 1.4 nM and 100%.
For the compound `CCC(C)(CC)NC(=O)c1cn(-c2c(F)cc(F)cc2F)c2nc(N3C[C@@H](O)[C@H](O)C3)c(F)cc2c1=O` [Example 88, 7-[(3R,4R)-3,4-Dihydroxypyrrolidin-1-yl]-6-fluoro-N-(3-methylpentan-3-yl)-4-oxo-1-(2,4,6-trifluorophenyl)-1,4-dihydro-1,8-naphthyridine-3-carboxamide], the EC50 came to 2.2 nM and the Emax came to 100%.
